Key:
[1] = Cmax in dog after oral administration at 1 mg/kg; format: ADME, organism-based, Canis lupus familiaris; parameters: dose 1 mg/kg, route oral; settings: in vivo
[2] = organism: Homo sapiens; assay: In vitro concentration required to double the human activated partial thromboplastin time (2x APTT); format: functional
[3] = molecular target: Serine protease 1 (Homo sapiens, UniProt P07477); assay: Inhibition of Trypsin
[4] = Area under curve was determined in dog after oral administration at 1 mg/kg; format: ADME, organism-based, Canis lupus familiaris; parameters: dose 1 mg/kg, route oral; settings: in vivo
[5] = Half-life in dog after oral administration at 1 mg/kg; format: ADME, organism-based, Canis lupus familiaris; parameters: dose 1 mg/kg, route oral; settings: in vivo
[6] = molecular target: Prothrombin (Homo sapiens, UniProt P00734); assay: Inhibition of Thrombin
[7] = test system: Canis familiaris; assay: Cmax in dog after oral administration at 1 mg/kg; Below the level of quantitation; format: ADME, organism-based, Canis lupus familiaris; parameters: dose 1 mg/kg, route oral; settings: in vivo

Serine protease 1, sequence (P07477 whole entry): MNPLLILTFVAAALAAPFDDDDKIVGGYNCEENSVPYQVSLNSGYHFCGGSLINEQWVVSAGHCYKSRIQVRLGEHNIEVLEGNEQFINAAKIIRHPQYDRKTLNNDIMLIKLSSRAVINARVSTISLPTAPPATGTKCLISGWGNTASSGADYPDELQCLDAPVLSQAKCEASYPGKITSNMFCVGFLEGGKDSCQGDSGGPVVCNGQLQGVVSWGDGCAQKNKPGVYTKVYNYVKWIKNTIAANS

Compound: Cc1cnc(NCCc2ccccc2)c(=O)n1CC(=O)NCc1cc2cc[nH]c2cn1
- Cmax [1]: 2.69 µM
- Concentration [2]: 2.63 µM
- Ki [3]: 95 µM
- AUC [4]: 15.2 µM·h
- half-life [5]: 3.6 h

Compound: Cc1cnc(NCCc2ccccn2)c(=O)n1CC(=O)NCc1ccc2[nH]ccc2c1
- Ki [3]: 290 µM

Compound: Cc1cnc(NCCc2ccccc2)c(=O)n1CC(=O)NCc1ccc2nccn2c1C
- Ki [3]: 6.8 µM

Compound: Cc1cnc(NCCc2ccccn2)c(=O)n1CC(=O)NCc1cnc2[nH]ccc2c1
- Cmax [1]: 2.1 µM
- Ki [6]: 0.0066 µM
- Ki [3]: 140 µM
- AUC [4]: 9.1 µM·h
- half-life [5]: 2.42 h

Compound: Cc1cnc(NCCc2ccccc2)c(=O)n1CC(=O)NCc1ccc2cc[nH]c2c1
- Ki [6]: 0.83 µM
- Ki [3]: > 100 µM

Compound: Cc1cnc(NCCc2ccccc2)c(=O)n1CC(=O)NCc1ccc2[nH]ccc2c1
- Ki [3]: > 100 µM

Compound: Cc1cnc(NCCc2ccccc2)c(=O)n1CC(=O)NCc1ccn2ccnc2c1
- Ki [6]: 0.27 µM
- Ki [3]: 120 µM

Compound: Cc1cnc(NCCc2ccccc2)c(=O)n1CC(=O)NCc1cnc2[nH]ccc2c1
- Ki [3]: > 100 µM

Compound: Cc1cnc(NCCc2ccccn2)c(=O)n1CC(=O)NCc1cc2cc[nH]c2cn1
- Cmax [1]: 0.18 µM
- Concentration [2]: 0.4 µM
- Ki [3]: 200 µM
- AUC [4]: 0.17 µM·h

Compound: Cc1cnc(NCCc2ccccn2)c(=O)n1CC(=O)NCc1ccc2[nH]ccc2n1
- Concentration [2]: 0.8 µM
- Ki [3]: > 1000 µM
- Cmax [7]: Below the level of quantitation

Compound: Cc1cnc(NCCc2ccccc2)c(=O)n1CC(=O)NCc1ccc2[nH]cnc2c1
- Ki [3]: 2 µM

Compound: Cc1cnc(NCCc2ccccc2)c(=O)n1CC(=O)NCc1ccc2[nH]ccc2n1
- Ki [3]: > 100 µM

Compound: Cc1cnc(NCCc2ccccn2)c(=O)n1CC(=O)NCc1c[nH]c2nccc-2c1
- Concentration [2]: 0.95 µM

Compound: Cc1nc(N)ccc1CNC(=O)Cn1c(C)cnc(NCCc2ccccc2)c1=O [L-375378]
- Cmax [1]: 5.37 µM
- Concentration [2]: 0.41 µM
- AUC [4]: 23.1 µM·h
- half-life [5]: 3.18 h

Compound: Cc1cnc(NCCc2ccccc2)c(=O)n1CC(=O)NCc1ccc2nccn2c1
- Ki [6]: 0.14 µM
- Ki [3]: 100 µM

— ChEMBL document CHEMBL1136608, “Azaindoles: moderately basic P1 groups for enhancing the selectivity of thrombin inhibitors” (Bioorg Med Chem Lett, 2003)
